14 molecules from patent publication US20210387973A1, “SUBSTITUTED HETEROCYCLIC COMPOUNDS AND THEIR USE AS RETINOID-RELATED ORPHAN RECEPTOR (ROR) GAMMA-T INHIBITORS” (Technische Universiteit Eindhoven, priority 2019, published 2021) can be followed below.

Test [1] has as its target T1, His6-RORγt ligand binding domain (Homo sapiens, UniProt P51449).
T1 sequence (P51449 269-508 limits assumed): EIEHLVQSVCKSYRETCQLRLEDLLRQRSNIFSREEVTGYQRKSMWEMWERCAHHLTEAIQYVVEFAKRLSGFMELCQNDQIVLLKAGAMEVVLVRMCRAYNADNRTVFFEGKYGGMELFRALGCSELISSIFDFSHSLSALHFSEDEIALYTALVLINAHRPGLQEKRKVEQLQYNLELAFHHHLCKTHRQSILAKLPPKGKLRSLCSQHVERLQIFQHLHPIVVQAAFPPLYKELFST
Description: TR-FRET coactivator recruitment assay. It counts as biochemical. The note with it: for Dependence of coactivator recruitment inhibition on cholesterol: fixed concentrations of orthosteric agonist cholesterol. On the procedure: In the present application the IC50 is determined according to a biochemical TR-FRET assay. […] A terbium labelled anti-His antibody (CisBio Bioassays, 61HISTLA) and D2-labelled streptavidin (CisBio Bioassays, 610SADLA) are used at the concentrations recommended by the supplier. Compounds (dissolved in DMSO) are titrated using a 2× dilution series in Corning white low volume, low binding, 384-well plates at a final volume of 10 μL The final DMSO concentration being 2% v/v throughout. […] The data is analyzed with Origin Software. The dose-response curve was fitted represented by:
Where y is the FRET ratio, A1 is the bottom asymptote, A2 is the top asymptote, p is the Hills slope and x is the ligand concentration.
The coactivator recruitment TR-FRET assay was performed in the presence of increasing fixed concentrations of cholesterol, a well characterized orthosteric agonist.
A terbium labelled anti-His antibody (CisBio Bioassays, 61HISTLA) and D2-labelled streptavidin (CisBio Bioassays, 610SADLA) were used at the concentrations recommended by the supplier. Compounds (dissolved in Dimethyl sulfoxide—DMSO) were titrated using a 2× dilution series from a highest final concentration of […] such that the final DMSO concentration was 2% v/v throughout.
Background: TR-FRET usually uses a lanthanide donor and a delayed reading to cut background.

A further test deals with T2, His6-RORγt (Homo sapiens, UniProt P51449).
T2 sequence (P51449 1-497 isoform P51449-2): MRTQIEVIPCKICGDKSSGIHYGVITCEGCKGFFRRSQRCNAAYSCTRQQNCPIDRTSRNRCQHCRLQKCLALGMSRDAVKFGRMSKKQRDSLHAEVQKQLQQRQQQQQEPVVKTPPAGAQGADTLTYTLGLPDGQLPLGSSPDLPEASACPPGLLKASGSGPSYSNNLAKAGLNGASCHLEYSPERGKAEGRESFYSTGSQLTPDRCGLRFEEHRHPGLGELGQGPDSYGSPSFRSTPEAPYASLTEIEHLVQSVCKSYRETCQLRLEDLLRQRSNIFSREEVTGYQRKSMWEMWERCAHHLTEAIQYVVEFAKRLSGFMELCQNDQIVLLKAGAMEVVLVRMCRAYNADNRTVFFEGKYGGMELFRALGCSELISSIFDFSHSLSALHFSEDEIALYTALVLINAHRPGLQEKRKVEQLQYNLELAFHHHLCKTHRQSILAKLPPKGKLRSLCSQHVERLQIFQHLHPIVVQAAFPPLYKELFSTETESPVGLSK
Description: Allosteric ligand displacement assay (AlexaFluor 647 probe, FRET). It counts as binding. The text has this:
To provide further evidence for allosteric ligand binding we used an orthogonal assay to directly probe for allosteric ligand binding (as opposed to measuring the indirect effects on coactivator recruitment).

Where [2] appears, read: Table 2, cholesterol concentration of 0 μM, read-out: IC50.

The structures appear in SMILES notation. Like-named read-outs stand apart in the source and are kept apart here. Bounds are passed on as bounds.

In the case of `O=C(O)c1ccc(NC(=O)c2c(-c3c(Cl)cccc3C(F)(F)F)noc2-c2ccccc2)cc1F` [RD082], in test [1] (setting [2]), the IC50 – broadly, the point on the concentration scale where inhibition reaches its midpoint – is 91.1 µM.

Consider `O=C(O)c1ccc(CNC(=O)c2c(-c3c(Cl)cccc3C(F)(F)F)noc2-c2ccccc2)cc1` [RD065], for which the IC50 in test [1] (setting [2]) is 8.8 µM.

`O=C(O)c1ccc(NCc2c(-c3c(Cl)cccc3C(F)(F)F)noc2-c2ccccc2)cc1` [GV068]: the IC50 in test [1] (setting [2]) amounted to 9.6 µM.

Regarding `O=C(O)c1ccc(NCc2c(-c3c(Cl)cccc3C(F)(F)F)noc2-c2cccc(O)c2)cc1` [RD369], the IC50 in test [1] (setting [2]) is 6.6 µM.

As to `O=C(O)c1ccc(/N=C/c2c(-c3c(Cl)cccc3C(F)(F)F)noc2-c2cc[nH]c2)cc1` [AS89], the IC50 in test [1] (setting [2]) amounted to 46.6 µM.

As for `O=C(O)c1ccc(S(=O)(=O)Nc2c(-c3c(Cl)cccc3C(F)(F)F)noc2-c2ccccc2)cc1` [GV031], the IC50 in test [1] (setting [2]) was determined as 62.6 µM.

For `O=C(O)c1cccc(NC(=O)c2c(-c3c(Cl)cccc3C(F)(F)F)noc2-c2ccccc2)c1` [RD061], the IC50 in test [1] (setting [2]) amounted to 73.9 µM.

Turning to `C[C@H]1O[C@@H](O[C@H]2[C@@H](O)C[C@H](O[C@H]3[C@@H](O)C[C@H](O[C@H]4CC[C@@]5(C)[C@H](CC[C@@H]6[C@@H]5C[C@@H](O)[C@]5(C)[C@@H](C7=CC(=O)OC7)CC[C@]65O)C4)O[C@@H]3C)O[C@@H]2C)C[C@H](O)[C@@H]1O` [Compound C, reference compound], the half-inhibitory concentration (IC50) was above 5 µM on His6-RORγt (displacement of Alexa Fluor 647 probe, read-out: AlexaFluor Probe Competition IC50); above 50 µM at His6-RORγt (read-out: IC50 for displacement of the Alexa Fluor 647 probe); 0.774 ± 0.0816 µM in test [1] (0 μM Cholesterol, read-out: IC50); 5.47 ± 0.456 µM in test [1] (0.1 μM Cholesterol, read-out: IC50); 32.4 ± 1.69 µM in test [1] (1.0 μM Cholesterol, read-out: IC50); 0.774 ± 0.0816 µM in test [1] (as listed beside probe competition (0 μM cholesterol values), read-out: Coactivator Recruitment IC50). The values for the Hill slope in test [1] (0 μM Cholesterol), in test [1] (0.1 μM Cholesterol) and in test [1] (1.0 μM Cholesterol) were −0.53 ± 0.03, −0.54 ± 0.02 and −0.87 ± 0.04, respectively. The “Dependence of coactivator recruitment inhibition on cholesterol” value in test [1] is “cholesterol-dependent activity profile”.

For the molecule `O=C(O)c1ccc(NCc2c(-c3c(Cl)cccc3C(F)(F)F)noc2-c2cccs2)cc1` [RD329], the IC50 in test [1] (setting [2]) amounted to 1.8 µM.

Consider `O=C(O)c1ccc(-c2c(-c3c(Cl)cccc3C(F)(F)F)noc2-c2ccccc2)cc1` [GV020], for which the IC50 in test [1] (setting [2]) stood at 8.2 µM.

For the molecule `O=C(O)c1ccc(NC(=O)c2c(-c3c(Cl)cccc3C(F)(F)F)noc2-c2ccccc2)cc1` [RD032], the IC50 in test [1] (setting [2]) stood at 53.5 µM.

For `O=C(O)c1ccc(CNc2c(-c3c(Cl)cccc3C(F)(F)F)noc2-c2ccccc2)cc1` [GV032], the IC50 in test [1] (setting [2]) turned out to be 30.9 µM.

Consider `O=C(O)c1ccc(NCc2c(-c3c(Cl)cccc3C(F)(F)F)noc2-c2cc[nH]c2)cc1` [Compound 1], for which the figures for the Hill slope in test [1] (0 μM Cholesterol), in test [1] (0.1 μM Cholesterol) and in test [1] (1.0 μM Cholesterol) were −0.45 ± 0.02, −0.74 ± 0.03 and −0.86 ± 0.03, respectively. In addition, the “Dependence of coactivator recruitment inhibition on cholesterol” value in test [1] was “independent of increasing concentrations of cholesterol”.

Regarding `O=C(O)c1ccc(NCc2c(-c3c(Cl)cccc3C(F)(F)F)noc2-c2ccco2)cc1` [RD149], the IC50 in test [1] (setting [2]) is 1.1 µM.
